Data taken from a compilation of properties of binary mixtures (doi:10.1080/00986445.2015.1114477).

Experiment: xn = mol fraction of the nth substance listed
Settings: 100 kPa

SMILES: CCCCCCCCn1cc[n+](C)c1.[Cl-] + CN1CCCC1=O
- viscosity (288.15 K, x2 = 0.3221): 1176 mPa·s
- viscosity (288.15 K, x2 = 0.43): 560 mPa·s
- viscosity (288.15 K, x2 = 0.5321): 204 mPa·s
- viscosity (288.15 K, x2 = 0.6343): 86 mPa·s
- viscosity (288.15 K, x2 = 0.7195): 32.3 mPa·s
- viscosity (288.15 K, x2 = 0.8143): 12.78 mPa·s
- viscosity (288.15 K, x2 = 0.9085): 5.24 mPa·s
- viscosity (293.15 K, x2 = 0.21): 2103 mPa·s
- viscosity (293.15 K, x2 = 0.43): 390 mPa·s
- viscosity (293.15 K, x2 = 0.5321): 149.8 mPa·s
- viscosity (293.15 K, x2 = 0.6343): 66.1 mPa·s
- viscosity (293.15 K, x2 = 0.7195): 26.2 mPa·s
- viscosity (293.15 K, x2 = 0.8143): 10.86 mPa·s
- viscosity (293.15 K, x2 = 0.9085): 4.63 mPa·s
- viscosity (298.15 K, x2 = 0.21): 1299 mPa·s
- viscosity (298.15 K, x2 = 0.43): 279 mPa·s
- viscosity (298.15 K, x2 = 0.5321): 112.3 mPa·s
- viscosity (298.15 K, x2 = 0.6343): 51.9 mPa·s
- viscosity (298.15 K, x2 = 0.7195): 21.09 mPa·s
- viscosity (298.15 K, x2 = 0.8143): 9.32 mPa·s
- viscosity (298.15 K, x2 = 0.9085): 4.13 mPa·s
- viscosity (303.15 K, x2 = 0.21): 878 mPa·s
- viscosity (303.15 K, x2 = 0.3221): 384 mPa·s
- viscosity (303.15 K, x2 = 0.43): 207 mPa·s
- viscosity (303.15 K, x2 = 0.5321): 86.1 mPa·s
- viscosity (303.15 K, x2 = 0.6343): 41.4 mPa·s
- viscosity (303.15 K, x2 = 0.7195): 17.68 mPa·s
- viscosity (303.15 K, x2 = 0.8143): 8.08 mPa·s
- viscosity (303.15 K, x2 = 0.9085): 3.71 mPa·s
- viscosity (308.15 K, x2 = 0.21): 619 mPa·s
- viscosity (308.15 K, x2 = 0.3221): 279 mPa·s
- viscosity (308.15 K, x2 = 0.43): 154.3 mPa·s
- viscosity (308.15 K, x2 = 0.5321): 67.1 mPa·s
- viscosity (308.15 K, x2 = 0.6343): 33.5 mPa·s
- viscosity (308.15 K, x2 = 0.8143): 7.07 mPa·s
- viscosity (313.15 K, x2 = 0.21): 442 mPa·s
- viscosity (313.15 K, x2 = 0.3221): 208 mPa·s
- viscosity (313.15 K, x2 = 0.43): 117.6 mPa·s
- viscosity (313.15 K, x2 = 0.5321): 53.3 mPa·s
- viscosity (313.15 K, x2 = 0.6343): 27.6 mPa·s
- viscosity (313.15 K, x2 = 0.7195): 12.7 mPa·s
- viscosity (313.15 K, x2 = 0.8143): 6.24 mPa·s
- viscosity (313.15 K, x2 = 0.9085): 3.05 mPa·s
- viscosity (318.15 K, x2 = 0.3221): 156.4 mPa·s
- viscosity (318.15 K, x2 = 0.43): 91.2 mPa·s
- viscosity (318.15 K, x2 = 0.6343): 22.98 mPa·s
- viscosity (318.15 K, x2 = 0.7195): 10.97 mPa·s
- viscosity (318.15 K, x2 = 0.9085): 2.79 mPa·s
- viscosity (323.15 K, x2 = 0.3221): 120.6 mPa·s
- viscosity (323.15 K, x2 = 0.43): 72 mPa·s
- viscosity (323.15 K, x2 = 0.5321): 35.6 mPa·s
- viscosity (323.15 K, x2 = 0.6343): 19 mPa·s
- viscosity (323.15 K, x2 = 0.7195): 9.55 mPa·s
- viscosity (323.15 K, x2 = 0.9085): 2.57 mPa·s
- viscosity (328.15 K, x2 = 0.3221): 94.4 mPa·s
- viscosity (328.15 K, x2 = 0.43): 57.7 mPa·s
- viscosity (328.15 K, x2 = 0.5321): 29.5 mPa·s
- viscosity (328.15 K, x2 = 0.6343): 16.2 mPa·s
- viscosity (328.15 K, x2 = 0.7195): 8.38 mPa·s
- viscosity (328.15 K, x2 = 0.8143): 4.46 mPa·s
- viscosity (328.15 K, x2 = 0.9085): 2.377 mPa·s
- viscosity (333.15 K, x2 = 0.21): 137.7 mPa·s
- viscosity (333.15 K, x2 = 0.3221): 76.3 mPa·s
- viscosity (333.15 K, x2 = 0.43): 46.7 mPa·s
- viscosity (333.15 K, x2 = 0.5321): 24.9 mPa·s
- viscosity (333.15 K, x2 = 0.6343): 14.09 mPa·s
- viscosity (333.15 K, x2 = 0.7195): 7.41 mPa·s
- viscosity (333.15 K, x2 = 0.8143): 4.04 mPa·s
- viscosity (333.15 K, x2 = 0.9085): 2.211 mPa·s

SMILES: CCCCCC[n+]1ccn(C)c1.[Cl-] + CN1CCCC1=O
- viscosity (288.15 K, x2 = 0.2211): 2552 mPa·s
- viscosity (288.15 K, x2 = 0.3181): 1037 mPa·s
- viscosity (288.15 K, x2 = 0.4223): 406 mPa·s
- viscosity (288.15 K, x2 = 0.5271): 167.3 mPa·s
- viscosity (288.15 K, x2 = 0.6327): 63.8 mPa·s
- viscosity (288.15 K, x2 = 0.718): 29.2 mPa·s
- viscosity (288.15 K, x2 = 0.8139): 11.44 mPa·s
- viscosity (288.15 K, x2 = 0.9083): 4.69 mPa·s
- viscosity (293.15 K, x2 = 0.2211): 1609 mPa·s
- viscosity (293.15 K, x2 = 0.3181): 687 mPa·s
- viscosity (293.15 K, x2 = 0.5271): 123.1 mPa·s
- viscosity (293.15 K, x2 = 0.6327): 49.7 mPa·s
- viscosity (293.15 K, x2 = 0.718): 23.7 mPa·s
- viscosity (293.15 K, x2 = 0.8139): 9.86 mPa·s
- viscosity (293.15 K, x2 = 0.9083): 4.16 mPa·s
- viscosity (298.15 K, x2 = 0.4223): 207 mPa·s
- viscosity (298.15 K, x2 = 0.6327): 39.4 mPa·s
- viscosity (298.15 K, x2 = 0.9083): 3.72 mPa·s
- viscosity (303.15 K, x2 = 0.2211): 699 mPa·s
- viscosity (303.15 K, x2 = 0.3181): 329 mPa·s
- viscosity (303.15 K, x2 = 0.5271): 71.4 mPa·s
- viscosity (303.15 K, x2 = 0.6327): 31.7 mPa·s
- viscosity (303.15 K, x2 = 0.718): 16.08 mPa·s
- viscosity (303.15 K, x2 = 0.8139): 7.37 mPa·s
- viscosity (303.15 K, x2 = 0.9083): 3.35 mPa·s
- viscosity (308.15 K, x2 = 0.3181): 239 mPa·s
- viscosity (308.15 K, x2 = 0.4223): 115.1 mPa·s
- viscosity (308.15 K, x2 = 0.5271): 55.9 mPa·s
- viscosity (308.15 K, x2 = 0.6327): 26 mPa·s
- viscosity (308.15 K, x2 = 0.9083): 3.04 mPa·s
- viscosity (313.15 K, x2 = 0.2211): 342 mPa·s
- viscosity (313.15 K, x2 = 0.3181): 176 mPa·s
- viscosity (313.15 K, x2 = 0.4223): 87.7 mPa·s
- viscosity (313.15 K, x2 = 0.5271): 45.3 mPa·s
- viscosity (313.15 K, x2 = 0.8139): 5.71 mPa·s
- viscosity (318.15 K, x2 = 0.2211): 247 mPa·s
- viscosity (318.15 K, x2 = 0.3181): 132.3 mPa·s
- viscosity (318.15 K, x2 = 0.4223): 68.5 mPa·s
- viscosity (318.15 K, x2 = 0.5271): 36.7 mPa·s
- viscosity (318.15 K, x2 = 0.6327): 17.7 mPa·s
- viscosity (318.15 K, x2 = 0.718): 10.04 mPa·s
- viscosity (318.15 K, x2 = 0.8139): 5.08 mPa·s
- viscosity (318.15 K, x2 = 0.9083): 2.55 mPa·s
- viscosity (323.15 K, x2 = 0.2211): 186 mPa·s
- viscosity (323.15 K, x2 = 0.5271): 30.2 mPa·s
- viscosity (323.15 K, x2 = 0.6327): 15.13 mPa·s
- viscosity (323.15 K, x2 = 0.718): 8.75 mPa·s
- viscosity (323.15 K, x2 = 0.8139): 4.55 mPa·s
- viscosity (323.15 K, x2 = 0.9083): 2.353 mPa·s
- viscosity (328.15 K, x2 = 0.2211): 140.1 mPa·s
- viscosity (328.15 K, x2 = 0.3181): 79.8 mPa·s
- viscosity (328.15 K, x2 = 0.5271): 25.1 mPa·s
- viscosity (328.15 K, x2 = 0.6327): 13.09 mPa·s
- viscosity (328.15 K, x2 = 0.8139): 4.07 mPa·s
- viscosity (328.15 K, x2 = 0.9083): 2.185 mPa·s
- viscosity (333.15 K, x2 = 0.2211): 109.4 mPa·s
- viscosity (333.15 K, x2 = 0.3181): 63.8 mPa·s
- viscosity (333.15 K, x2 = 0.4223): 36.7 mPa·s
- viscosity (333.15 K, x2 = 0.5271): 21.19 mPa·s
- viscosity (333.15 K, x2 = 0.6327): 11.35 mPa·s
- viscosity (333.15 K, x2 = 0.718): 6.77 mPa·s
- viscosity (333.15 K, x2 = 0.8139): 3.68 mPa·s
